# Test results taken from patent publication US11607383B2, “Conductive polymer microneedle arrays for electronically-controlled drug release” (University of Washington, priority 2019, dated 2023).
# What was measured:
# [1] = system: activated BV2 murine microglia; test: In vitro neuroinflammation assay (NO by Griess, cytokines by Luminex); assay type: cell-based; details: for NO release normalized to viable cells: DC experiment
# Description: Bioactivity of electrically released drug was tested in an in vitro neuroinflammation model, in which drugs were released into wells of activated BV2 murine microglia. Healthy BV2 cells were seeded in 12-well plates at a density of 100,000 cells/well, in 1.6 mL of Dulbecco's modified eagle media (DMEM, Gibco) with 4.5 g/L D-glucose, 584 mg/L L-glutamine, and 110 mg/L sodium pyruvate (Invitrogen). The DMEM was supplemented with 5% fetal bovine serum (Invitrogen) and 2% anti-mycotic/anti-biotic (Invitrogen). Following seeding, the cells were incubated at 37° C. overnight to allow for settling and adhesion. Cells in activated treatment groups were activated by the replacement of media with fresh DMEM containing 0.005% interferon gamma (Ifn-γ, Invitrogen) and 1% lipopolysaccharide (LPS, ThermoFisher). Unactivated controls received normal fresh DMEM. Cells were then incubated for 1 hour before application of treatment in groups of n=6, in order to simulate realistic conditions in which there is a duration between traumatic SCI occurrence and access to treatment.
# Treatment was applied transdurally from microneedles into the cell media though the transdural insert model as previously described in the In Vitro Transdural Release section. Diagrams of experimental conditions can be found in FIGS. 5A-5G. Microneedles were similarly applied manually, then underwent a potentiostatic or cyclic electrical stimulation. Direct current potential was applied for only 2 minutes to minimize electrical imbalance applied to the cells, while delivering sufficient drug to achieve therapeutic effect. Cyclic voltammetry was applied for 15 cycles, equating to 10 minutes. Epidural drug solution controls were similarly applied to the neuroinflammation model by pipetting over the transdural insert. In addition, a subdural solution control was introduced to the neuroinflammation studies in which the Dexa solution is applied directly to the cell media, bypassing the transdural insert.
# Following 3 days of incubation, cell media was assayed for markers of inflammation. Free radical nitric oxide (NO) was quantified using a Griess reagent kit (Invitrogen) that detects NO reduced to nitrites in cell medias. Colorimetric NO quantification was performed following the protocols provided in the Griess reagent kit. Pro-inflammatory cytokines were quantified using a Luminex Magpix Multiplexing assay (Millipore). Cytokines quantified include interleukin-1-beta (IL-1β), interleukin-6 (IL-6), and tumor necrosis factor alpha (TNF-α). Cells treated in the CV stimulated experiment were additionally quantified for the release of monocyte chemoattractant protein 1 (MCP-1). The Luminex multiplexing assays were performed following the protocol provided in the kit.
# BV2 murine microglia = assay type: cell-based; details: subdural solution, DC experiment, 3 days incubation
# Description: Bioactivity of electrically released drug was tested in an in vitro neuroinflammation model, in which drugs were released into wells of activated BV2 murine microglia. Healthy BV2 cells were seeded in 12-well plates at a density of 100,000 cells/well, in 1.6 mL of Dulbecco's modified eagle media (DMEM, Gibco) with 4.5 g/L D-glucose, 584 mg/L L-glutamine, and 110 mg/L sodium pyruvate (Invitrogen). The DMEM was supplemented with 5% fetal bovine serum (Invitrogen) and 2% anti-mycotic/anti-biotic (Invitrogen). Following seeding, the cells were incubated at 37° C. overnight to allow for settling and adhesion. Cells in activated treatment groups were activated by the replacement of media with fresh DMEM containing 0.005% interferon gamma (Ifn-γ, Invitrogen) and 1% lipopolysaccharide (LPS, ThermoFisher). Unactivated controls received normal fresh DMEM. Cells were then incubated for 1 hour before application of treatment in groups of n=6, in order to simulate realistic conditions in which there is a duration between traumatic SCI occurrence and access to treatment. […]
# Cell viability was measured using an MTS assay (CellTiter 96® AQueous One Solution Cell Proliferation Assay, Promega). […] The incubation was followed by detection of absorbance at 490 nm. The MTS absorbance in each group was normalized to the absorbance of the unactivated group.
# [2] = epidural solution, CV experiment
smiles,measurement,setting,value
"C[C@@H]1C[C@H]2[C@@H]3CCC4=CC(=O)C=C[C@]4(C)[C@@]3(F)[C@@H](O)C[C@]2(C)[C@@]1(O)C(=O)COP(=O)(O)O [Dexa solution, dexamethasone phosphate]",MCP-1 release normalized for viable cells,[1]; [2],did not see the same decrease
same,NO release normalized for viable cells,[1]; [2],did not see similar reductions in NO release
same,NO release normalized to viable cells,[1]; epidural solution,did not demonstrate the same decrease
same,NO release normalized to viable cells,[1]; subdural solution,significant decrease
same,relative cell viability (MTS),BV2 murine microglia,"slight decreases in viability, though not significant"
